Counter-ions that a name gives are not always drawn.

The values below come from publication PMC11995724, “Antibiotic target discovery by integrated phenotypic and activity-based profiling of electrophilic fragments” (Cell chemical biology, 2025).

The nature of this series: in vitro. The following applies: human, hek293t cells.
For `C=CC(=O)N1CCC(C(=O)NCc2ncc(N(C)C)cn2)CC1` [3-L03, N-{[5-(dimethylamino)pyrimidin-2-yl]methyl}-1-(prop-2-enoyl)piperidine-4-carboxamide], the viability at 48 h, 25 µM came to 68.2%. Under `Cc1csc(C(C#N)C(=O)CCl)n1` (stereo not shown) [10-D12, 4-chloro-2-(4-methyl-1,3-thiazol-2-yl)-3-oxobutanenitrile] stands 6.6%. Under `O=C(CCl)Nc1cc2c(cc1[N+](=O)[O-])OCCCO2` [4-O05, 2-chloro-N-(8-nitro-3,4-dihydro-2H-1,5-benzodioxepin-7-yl)acetamide] stands 103%; under `CC(NC(=O)c1ccccc1NC(=O)CCl)c1ccccc1` (stereo not shown) [4-B07, 2-(2-chloroacetamido)-N-(1-phenylethyl)benzamide], 0.478%. Turning to `C=CC(=O)NCCC(=O)N1CCN(c2ccccc2Cl)CC1` [3-J22, N-{3-[4-(2-chlorophenyl)piperazin-1-yl]-3-oxopropyl}prop-2-enamide], the viability at 48 h, 25 µM turned out to be 88.6%. As for `CCCn1c(N)c(C(=O)CCl)c(=O)n(C)c1=O` [10-H12, 6-amino-5-(2-chloroacetyl)-3-methyl-1-propyl-1,2,3,4-tetrahydropyrimidine-2,4-dione], the viability at 48 h, 25 µM came out at 86.3%. The figure for `O=C(CCl)Nc1ncc(Cc2ccccc2Cl)s1` [4-P07, 2-chloro-N-{5-[(2-chlorophenyl)methyl]-1,3-thiazol-2-yl}acetamide] is -0.245%; for `C=CC(=O)N1CCC(C(=O)N2CCC(OC)(C(F)(F)F)CC2)CC1` [3-E08, 1-{4-[4-methoxy-4-(trifluoromethyl)piperidine-1-carbonyl]piperidin-1-yl}prop-2-en-1-one] it is 98.2%. The figure for `CC(Cl)C(=O)N[C@H]1CN(Cc2ccccc2)C[C@@H]1c1ccccc1` (mixture of isomers) [7-N09, rac-N-[(3R,4S)-1-benzyl-4-phenylpyrrolidin-3-yl]-2-chloropropanamide] is 88.2%; for `CC(Cl)C(=O)N1CCC(n2nnc3c2CCCC3)CC1` (stereo not shown) [7-H17, 2-chloro-1-[4-(4,5,6,7-tetrahydro-1H-1,2,3-benzotriazol-1-yl)piperidin-1-yl]propan-1-one] it is 90%. Under `C=CC(=O)N(C)CC1(O)CCc2ccccc21` (stereo not shown) [3-D11, N-[(1-hydroxy-2,3-dihydro-1H-inden-1-yl)methyl]-N-methylprop-2-enamide] stands 58.6%; under `O=C1NC(=O)c2cc(NC(=O)N3CCSSCC3)ccc21` [10-K22, N-(1,3-dioxo-2,3-dihydro-1H-isoindol-5-yl)-1,2,5-dithiazepane-5-carboxamide], 98.8%; under `Cc1cccc(C)c1NC(=O)C(C#N)=Cc1ccsc1` [8-I07, 2-cyano-N-(2,6-dimethylphenyl)-3-(thiophen-3-yl)prop-2-enamide], 85.3%.

In the case of `C=CC(=O)N1CCC(c2ccnn2C)CC1` [2-I15, 1-[4-(1-methyl-1H-pyrazol-5-yl)piperidin-1-yl]prop-2-en-1-one], the viability at 48 h, 25 µM was determined as 96.5%. `CC1CN(C(=O)C(C#N)=Cc2ccc(OC(F)F)cc2)CC(C)O1` (stereo not shown) [8-G05, 3-[4-(difluoromethoxy)phenyl]-2-(2,6-dimethylmorpholine-4-carbonyl)prop-2-enenitrile]: the viability at 48 h, 25 µM is 97.8%.

In the case of `CC(Cl)C(=O)N1CCN(Cc2nnnn2-c2ccccc2)CC1` (stereo not shown) [7-N05, 2-chloro-1-{4-[(1-phenyl-1H-1,2,3,4-tetrazol-5-yl)methyl]piperazin-1-yl}propan-1-one], the viability at 48 h, 25 µM was 97.8%. Under `Cc1ccc(NC(=O)CN2CCN(C(=O)CCl)CC2)cc1` [4-D16, 2-[4-(2-chloroacetyl)piperazin-1-yl]-N-(4-methylphenyl)acetamide hydrochloride] stands 0.854%. As to `COc1cc(Cl)c(C)cc1NC(=O)C(C)Cl` (stereo not shown) [6-C15, 2-chloro-N-(4-chloro-2-methoxy-5-methylphenyl)propanamide], the viability at 48 h, 25 µM was 102%. Turning to `N#CC(=Cc1c(F)cccc1F)C(=O)NCCc1ccccc1` [8-D18, 2-cyano-3-(2,6-difluorophenyl)-N-(2-phenylethyl)prop-2-enamide], the viability at 48 h, 25 µM worked out at 47.1%. Under `Cc1ccc(C)c(Sc2ccc(NC(=O)CCl)cc2)c1` [4-H09, 2-chloro-N-{4-[(2,5-dimethylphenyl)sulfanyl]phenyl}acetamide] stands -0.157%; under `CCOc1ccccc1C=C(C#N)C(=O)Nc1ccc(Cl)cc1` [8-B09, N-(4-chlorophenyl)-2-cyano-3-(2-ethoxyphenyl)prop-2-enamide], 82.9%. As for `C=CC(=O)NCc1cccc(-c2nnc[nH]2)c1` [1-I18, N-{[3-(4H-1,2,4-triazol-3-yl)phenyl]methyl}prop-2-enamide], the viability at 48 h, 25 µM came out at 172%. Under `N#CC(=Cc1ccc2ccccc2c1)C(=O)NCc1ccccc1` [9-N11, N-benzyl-2-cyano-3-(naphthalen-2-yl)prop-2-enamide] stands 123%; under `C=CC(=O)Nc1ncccn1` [1-M12, N-(pyrimidin-2-yl)prop-2-enamide], 71.5%; under `C=CC(=O)Nc1ccc(-c2nnnn2C)cc1` [2-F18, N-[4-(1-methyl-1H-1,2,3,4-tetrazol-5-yl)phenyl]prop-2-enamide], 95.5%. In the case of `C=CC(=O)NC1CCN(c2ccc(Cl)c(Cl)c2)C1` (stereo not shown) [1-C14, N-[1-(3,4-dichlorophenyl)pyrrolidin-3-yl]prop-2-enamide], the viability at 48 h, 25 µM stood at 52.9%. As for `CC(O)CN(Cc1ccc(Cl)c(F)c1)C(=O)CCl` (stereo not shown) [5-K12, 2-chloro-N-[(4-chloro-3-fluorophenyl)methyl]-N-(2-hydroxypropyl)acetamide], the viability at 48 h, 25 µM turned out to be 0.478%. Under `C=CC(=O)Nc1ccccc1C1CC1(F)F` (stereo not shown) [1-M15, N-[2-(2,2-difluorocyclopropyl)phenyl]prop-2-enamide] stands 86.4%.

As for `COc1cc2c(cc1NC(=O)C(C)Cl)oc1ccccc12` (stereo not shown) [6-G09, 2-chloro-N-{4-methoxy-8-oxatricyclo[7.4.0.0,2,7]trideca-1(9),2(7),3,5,10,12-hexaen-5-yl}propanamide], the viability at 48 h, 25 µM stood at 93%.

For the molecule `CCS(=O)(=O)c1ccc(NC(=O)CCl)c(O)c1` [4-P21, 2-chloro-N-[4-(ethanesulfonyl)-2-hydroxyphenyl]acetamide], the viability at 48 h, 25 µM is 73.2%. The figure for `Cc1ncsc1C=C(C#N)C(=O)NCCc1ccccc1` [9-H06, 2-cyano-3-(4-methyl-1,3-thiazol-5-yl)-N-(2-phenylethyl)prop-2-enamide] is 99.1%. Take `O=C(CCl)NCc1ccccc1CS(=O)(=O)N1CCOCC1` [4-G08, 2-chloro-N-({2-[(morpholine-4-sulfonyl)methyl]phenyl}methyl)acetamide]: the viability at 48 h, 25 µM was 0.79%. Under `Cc1cc(C(=O)CCl)c(C)n1-c1ccc(Cl)cc1` [10-H18, 2-chloro-1-[1-(4-chlorophenyl)-2,5-dimethyl-1H-pyrrol-3-yl]ethan-1-one] stands 0.517%; under `COc1ccc(Cl)cc1N1C(=O)C=CC1=O` [10-K10, 1-(5-chloro-2-methoxyphenyl)-2,5-dihydro-1H-pyrrole-2,5-dione], 81.3%. The figure for `CCC(NC(=O)CCl)c1ccc(Cl)cc1` (stereo not shown) [6-O10, 2-chloro-N-[1-(4-chlorophenyl)propyl]acetamide] is 1.9%. The figure for `CC(=O)NCCc1ccc(C(=O)C(C)Cl)cc1` (stereo not shown) [10-B03, N-{2-[4-(2-chloropropanoyl)phenyl]ethyl}acetamide] is 85.1%; for `O=C(CCl)Nc1nc2ccc([N+](=O)[O-])cc2s1` [4-H08, 2-chloro-N-(6-nitro-1,3-benzothiazol-2-yl)acetamide] it is 0.244%; for `O=C(CCl)N1c2ccc(F)cc2NC(=O)C12CCC2` [5-K09, 1'-(2-chloroacetyl)-6'-fluoro-3',4'-dihydro-1'H-spiro[cyclobutane-1,2'-quinoxalin]-3'-one] it is 0.346%. With `COc1cc(NC(=O)CCl)cc(OC)c1` [4-G09, 2-chloro-N-(3,5-dimethoxyphenyl)acetamide], the viability at 48 h, 25 µM worked out at 8.6%. The figure for `C=CC(=O)Nc1ccc(C(=O)NC2CC(C)(C)OC2=O)cc1` (stereo not shown) [3-B08, N-(5,5-dimethyl-2-oxooxolan-3-yl)-4-(prop-2-enamido)benzamide] is 82.4%; for `COCCn1c(N)c(C(=O)CCl)c(=O)[nH]c1=O` [10-N12, 6-amino-5-(2-chloroacetyl)-1-(2-methoxyethyl)-1,2,3,4-tetrahydropyrimidine-2,4-dione] it is 103%. The figure for `CN(CCC1CCCCC1)C(=O)CCl` [5-A06, 2-chloro-N-(2-cyclohexylethyl)-N-methylacetamide] is 0.304%; for `O=C(CCl)NS(=O)(=O)c1ccc(Cl)cc1` [4-E18, 2-chloro-N-(4-chlorobenzenesulfonyl)acetamide] it is 79.9%; for `CC(Cl)C(=O)N1CC(Cc2cccs2)C1` (stereo not shown) [7-I04, 2-chloro-1-{3-[(thiophen-2-yl)methyl]azetidin-1-yl}propan-1-one] it is 88.8%. Under `C=CC(=O)NCCNC(=O)c1cc2ccccc2[nH]1` [3-B21, N-{2-[(1H-indol-2-yl)formamido]ethyl}prop-2-enamide] stands 63.1%. In the case of `C=CC(=O)Nc1cc(C(C)C)ccc1C(C)C` [1-I21, N-[2,5-bis(propan-2-yl)phenyl]prop-2-enamide], the viability at 48 h, 25 µM was 101%. Under `O=C(CCl)N1CCN(S(=O)(=O)c2cccc([N+](=O)[O-])c2)CC1` [4-C19, 2-chloro-1-[4-(3-nitrobenzenesulfonyl)piperazin-1-yl]ethan-1-one] stands 1.45%.

On to `N#CC(=Cc1ccc(O)c(O)c1)C(=O)Nc1ccccc1F` [8-B05, 2-cyano-3-(3,4-dihydroxyphenyl)-N-(2-fluorophenyl)prop-2-enamide], for which the viability at 48 h, 25 µM amounted to 92.9%.

As for `C=CC(=O)Nc1ccc(C(=O)N2CCCCC2CS(C)(=O)=O)cc1` (stereo not shown) [2-N18, N-{4-[2-(methanesulfonylmethyl)piperidine-1-carbonyl]phenyl}prop-2-enamide], the viability at 48 h, 25 µM was 102%.
